From the CATMoS acute toxicity set (Mansouri et al. 2021)

assay: GHS categories as the set defines them, by LD50: 1 up to 5, 2 up to 50, 3 up to 300, 4 up to 2000, 5 above 2000 mg/kg; conditions: rat; in vivo; po

In order of falling GHS category:
1. CCOc1ccc(Cc2cc([C@@H]3O[C@H](COC(C)=O)[C@@H](OC(C)=O)[C@H](OC(C)=O)[C@H]3OC(C)=O)ccc2Cl)cc1  5
2. N[C@@H](CSSC[C@H](N)C(=O)O)C(=O)O  5
3. CCOP(=S)(OCC)ON=C(C#N)c1ccccc1Cl  5
4. CS(=O)(=O)c1ccc([C@@H](O)[C@@H](CO)NC(=O)C(Cl)Cl)cc1  5
5. COc1cc(OC)nc(NC(=O)NS(=O)(=O)Cc2ccccc2C(=O)O)n1  5
6. CNc1ccc(C(=O)c2ccc(Cl)cc2)cc1O  5
7. C/C=C/C(=O)OC  5
8. O=C1C=CC(=O)N1c1ccc(Cc2ccc(N3C(=O)C=CC3=O)cc2)cc1  5
9. C[C@@H]1C[C@H]2[C@@H]3CCC4=CC(=O)C=C[C@]4(C)[C@@]3(F)[C@@H](O)C[C@]2(C)[C@@]1(O)C(=O)COS(=O)(=O)O  5
10. CC(C)(C)c1cc(S)c(O)c(C(C)(C)C)c1  5
11. CC(O)CO[C@@H]1[C@@H](O)[C@H]2O[C@H]3[C@H](OCC(C)O)[C@@H](O)[C@@H](O[C@H]4[C@H](O)[C@@H](OCC(C)O)[C@@H](O[C@H]5[C@H](O)[C@@H](O)[C@@H](O[C@H]6[C@H](O)[C@@H](OCC(C)O)[C@@H](O[C@H]7[C@H](O)[C@@H](O)[C@@H](O[C@@H]1[C@@H](CO)O2)O[C@@H]7CO)O[C@@H]6CO)O[C@@H]5CO)O[C@@H]4CO)O[C@@H]3CO (some centres undefined)  5
12. CC(C)CCC1CCC(O)CC1 (centres undefined)  5
13. C=CC/C=C/C/C=C/C/C=C/C  5
14. c1ccc2c(c1)CCc1ccccc1N2  5
15. CC(O)C1=CCC(C(C)(C)O)CC1O (centres undefined)  5
16. Nc1c(OCCOC(=O)Oc2ccccc2)cc(O)c2c1C(=O)c1ccccc1C2=O  5
17. C=C(C)c1cccc(C(=C)C)c1  5
18. NCCCCCCCCCCCC(=O)O  5
19. CN1C(C(=O)Nc2ccccc2)=C(O)c2ccccc2S1(=O)=O  5
20. CCCCCCCCCCCCCCCC(=O)OC(C)C  5
21. CCCCCCC(C)C=O (centres undefined)  5
22. CC(C)(CO)C1OCC2(CO1)COC(C(C)(C)CO)OC2 (centres undefined)  5
23. CCCCCCOc1ccccc1C(N)=O  5
24. CNC(=O)c1sc(-c2ccccc2OC)nc1C  5
25. CN[C@@H]1[C@@H](O)[C@@H](O[C@@H]2[C@@H](O)[C@H](O[C@H]3O[C@H](CN)[C@@H](O)[C@H](O)[C@H]3O)[C@@H](N)C[C@H]2NC(=O)C(O)CN)OC[C@]1(C)O (some centres undefined)  5
26. CCCCCCCCC(O)CCO (centres undefined)  5
27. Cn1c(=O)oc2ccc(Cl)cc21  5
28. CC(CO)(CO)C(=O)O  5
29. CCOC(=O)C(C)CC (centres undefined)  5
30. C[C@]12CCC(=O)C=C1C=C[C@@H]1[C@@H]2CC[C@@]2(C)[C@H]1CC[C@@]21CCC(=O)O1  5
31. Cc1ccc(OC(=O)Cc2ccccc2)cc1  5
32. CCC(CC)Nc1nnc(-c2ccccc2)c2ccccc12  5
33. CNc1ccc(C(C)=O)cc1O  5
34. O=c1n(CCO)c(=O)n(CCO)c(=O)n1CCO  5
35. CCCCC(CC)COC(=O)CC(CC(=O)OCC(CC)CCCC)(OC(C)=O)C(=O)OCC(CC)CCCC (centres undefined)  5
36. S=C(SSSSSSC(=S)N1CCCCC1)N1CCCCC1  5
37. CCCCCCCCC=CCCCCCCOC(C)=O  5
38. Cc1nsc(NC(=O)c2ccccc2)c1C(=O)Nc1ccc(Cl)cc1  5
39. CC(=O)Nc1ccccc1CCNC(=O)c1ccc2ccccc2c1O  5
40. Cc1ccc(C(=O)OCCCl)cc1N=Nc1c(O)c(C(=O)Nc2cc(C)c(NC(=O)c3cc4ccccc4c(N=Nc4cc(C(=O)OCCCl)ccc4C)c3O)cc2C)cc2ccccc12  5
41. O=C(OCc1cncs1)Oc1ccc([N+](=O)[O-])cc1  5
42. N#Cc1c[nH]cc1-c1cccc(Cl)c1Cl  5
43. C[Si]1(C)O[Si](C)(C)O[Si](C)(C)O[Si](C)(C)O[Si](C)(C)O1  5
44. Cc1cc(NC(=O)C2=C(O)c3ccccc3S(=O)(=O)N2C)no1  5
45. CC(=O)Nc1c(I)c(C(=O)N[C@H]2C(O)O[C@H](CO)[C@@H](O)[C@@H]2O)c(I)c(N(C)C(C)=O)c1I (some centres undefined)  5
46. O=C1c2ccccc2C(=O)c2c(NCCO)ccc(NCCO)c21  5
47. CC1(C)CC[C@@]2(C(=O)O)CC[C@@]3(C)C(=CC[C@H]4[C@]5(C)CC[C@@H](O)C(C)(C)[C@H]5CC[C@@]43C)[C@H]2C1 (racemic)  5
48. O=C1c2ccccc2OC1c1ccccc1 (centres undefined)  5
49. CCCC(=O)C(C)=O  5
50. CCOCCOCCOC(=O)C1CCC(C(=O)OCCOCCOCC)CC1 (centres undefined)  5
51. O=c1c2ccccc2[nH]c2cc3c(=O)c4ccccc4[nH]c3cc12  5
52. CCNC(=O)[C@@H]1CCCN1C(=O)[C@H](CCCNC(=N)N)NC(=O)[C@H](CC(C)C)NC(=O)[C@@H](CC(C)C)NC(=O)[C@H](Cc1ccc(O)cc1)NC(=O)[C@H](CO)NC(=O)[C@H](Cc1c[nH]c2ccccc12)NC(=O)[C@H](Cc1cnc[nH]1)NC(=O)[C@@H]1CCC(=O)N1  5
53. CCCCCCCCCC(C)=O  5
54. CC[n+]1c(C=Cc2ccc(N3CCCC3)cc2)cccc1C=Cc1ccc(N2CCCC2)cc1  5
55. O=C(O)c1cc2ccccc2c(N=Nc2cc(Cl)ccc2Cl)c1O  5
56. COc1ccc(Cl)cc1C(=O)NCCc1ccc(S(=O)(=O)NC(=O)NC2CCCCC2)cc1  5
57. CCCCCC(CCC)COC(=O)c1ccccc1C(=O)OCC(CCC)CCCCC (centres undefined)  5
58. Cn1cc(C(=O)Cl)c(C(F)F)n1  5
59. O=C(Nc1cc(Cl)c(Cl)cc1Cl)c1cc(Cl)cc(-c2ccccc2)c1O  5
60. C=CCCCCC=C  5
61. CC(=O)SC[C@@H](C)C(=O)N1CCC[C@H]1C(=O)N[C@@H](Cc1ccccc1)C(=O)O  5
62. CC(C)CCCCCCCCCCCCCCCOC(=O)CCCCCCCCCCCCCCC(C)C  5
63. CCCCl  5
64. O=C1c2ccccc2C(c2ccc(O)cc2)(c2ccc(O)cc2)N1c1ccccc1  5
65. O=S(=O)(O)c1cc(O)c2c(N=Nc3ccc(Nc4ccccc4)c4c(S(=O)(=O)O)cccc34)cc(S(=O)(=O)O)cc2c1  5
66. COC(=O)C(CCn1cnc2c(Cl)nc(N)nc21)C(=O)OC  5
67. CCCCC(CC)COC(=O)c1ccc([N+](=O)[O-])cc1 (centres undefined)  5
68. CCCCC(O)CCO (centres undefined)  5
69. CCCCCCCCCCCCCCOC(=O)OOC(=O)OCCCCCCCCCCCCCC  5
70. C[C@]12CCC(=O)C[C@@H]1CC[C@@H]1[C@@H]2CC[C@@]2(C)[C@H]1CC[C@]2(C)O  5
71. CCCCCCCCCCCCCCCCCCSSCCCCCCCCCCCCCCCCCC  5
72. CCCCCCCCCCCC#N  5
73. COC(=O)c1cc(F)ccc1N  5
74. CCC(C)C(NC(=O)C(Cc1cnc[nH]1)NC(=O)C(CCSC)NC(=O)C(CS)NC(=O)C(NC(=O)CNC(=O)CNC(=O)C(CC(N)=O)NC(=O)C(CC(C)C)NC(=O)C(CS)NC(=O)C(Cc1ccc(O)cc1)NC(=O)CNC(=O)C(CC(=O)O)NC(=O)C(Cc1ccc(O)cc1)NC(=O)C(CO)NC(=O)C(CO)NC(=O)C1CCCN1C(=O)C(CS)NC(=O)CNC(=O)C1CCCN1C(=O)C(Cc1ccc(O)cc1)NC(=O)C(CO)NC(=O)C(N)CC(N)=O)C(C)C)C(=O)NC(CCC(=O)O)C(=O)NC(CO)C(=O)NC(CC(C)C)C(=O)NC(CC(=O)O)C(=O)NC(CO)C(=O)NC(Cc1ccc(O)cc1)C(=O)NC(C(=O)NC(CS)C(=O)NC(CC(N)=O)C(=O)NC(CS)C(=O)NC(C(=O)NC(C(=O)NCC(=O)NC(Cc1ccc(O)cc1)C(=O)NC(CO)C(=O)NCC(=O)NC(CC(=O)O)C(=O)NC(CCCNC(=N)N)C(=O)NC(CS)C(=O)NC(CCC(N)=O)C(=O)NC(C(=O)NC(CCCNC(=N)N)C(=O)NC(CC(=O)O)C(=O)NC(CC(C)C)C(=O)NC(CCCNC(=N)N)C(=O)NC(Cc1c[nH]c2ccccc12)C(=O)NC(Cc1c[nH]c2ccccc12)C(=O)NC(CCC(=O)O)C(=O)NC(CC(C)C)C(=O)NC(CCCNC(=N)N)C(=O)O)C(C)O)C(C)CC)C(C)C)C(C)O (centres undefined)  5
75. CC[C@H]1CO[C@@](Cn2ccnc2)(c2cc3cc(Cl)cc(Cl)c3o2)O1  4
76. O=C(Nc1ccc(Cl)cc1)c1ccccc1  4
77. CCCCCCCCCCN(C)CCCCCCCCCC  4
78. CCCc1c(Cc2ccc(-c3ccccc3-c3nn[nH]n3)cc2)c(N2CCCCC2)nc2ncnn12  4
79. CC(=O)N(C)C(=O)Oc1cccc2c1OC1(CCCC1)O2  4
80. CCOC(=O)c1cnn(-c2ccccc2)c1N  4
81. CC(C)=CCN(CC=C(C)C)CCC(CCN(CC=C(C)C)CC=C(C)C)(C(N)=O)c1cccc2ccccc12  4
82. O=CC1=C(C(Cl)(Cl)Cl)C(Cl)(Cl)C(O)C1(Cl)Cl (centres undefined)  4
83. CCCc1c(Cc2ccc(-c3sccc3-c3nn[nH]n3)cc2)c(=O)nc2nc(C)[nH]n12  4
84. CC(=O)N(C)C(=O)Oc1cccc2c1OC1(CCCCC1)O2  4
85. O=c1nc(-c2cccnc2)[nH]c2ncccc12  4
86. CCCCC(CC)C(c1ccc(O)cc1)c1ccc(O)cc1 (centres undefined)  4
87. Cn1nnnc1SCCCC(=O)NCc1ccco1  4
88. CC1=CCC(C=CC(C)C(C)O)C1(C)C (centres undefined)  4
89. COc1ccccc1N1CCN(/C(=N\CC(C)C)Nc2ccc(Cl)c(Cl)c2)CC1  4
90. O=C(Cl)CCCCCl  4
91. CC1(C(=O)O)CCCCC1  4
92. COC12C[C@@H](CO)CN(C)[C@@H]1Cc1cn(C(C)(C)C)c3cccc2c13 (some centres undefined)  4
93. Cc1ccc2c(c1)c(-c1ccccc1)nn2CCCN(C)C  4
94. CCCc1c(Cc2ccc(-c3ccccc3-c3nn[nH]n3)cc2)c(=O)nc2nc[nH]n12  4
95. CCCCC(C)OP(=S)(OC)OC (centres undefined)  4
96. OCCCOc1nn(-c2cccc(C(F)(F)F)c2)c2ncccc12  4
97. CCCNC(=O)c1cnc2ccccn2c1=O  3
98. CC(C)CCCCCCCOCCCNCCCN  3
99. CCCNC(=O)c1cnc2c(C)cccn2c1=O  3
